In patent publication US10253041B2, “7-phenylethylamino-4H-pyrimido[4,5-d][1,3]oxazin-2-one compounds and their use as mutant IDH1 inhibitors” (Eli Lilly and Company, priority 2015, dated 2019) one finds IC50 data, which are given here for 15 compounds.

What all share (conditions): mean ± standard deviation of the mean; 90 minutes reaction
One assay concerns the target T1, IDH1/R132H (Homo sapiens, UniProt O75874, R132H).
T1 construct: His-tag (N); made in house; host or cells: E. coli
Kind of assay: Biochemical assay for IDH1 R132H mutant enzyme (2HG by RapidFire MS). How it is done:
(§1) IDH1-R132H, IDH1-R132C, IDH2-R172K and IDH2-R140Q mutant enzymes catalyze the conversion of αKG to 2HG. 2HG is analyzed using in-line solid phase extraction and mass spectrometry. This analysis is carried out in a RapidFire® instrument coupled to a 6460 triple quadrupole mass spectrometer (G6460A Agilent).
(§2) IDH1 mutant (R132H and R132C) and IDH2 mutant (R140Q and R172K) proteins containing N-terminal His-tag are expressed in E. coli and purified using nickel affinity chromatography. The enzyme assays are carried out in V-bottom 96 well polypropylene plates containing 100 mM Tris-HCl buffer, 1 mM DTT, 0.005% TRITON™ X-100, 120 mM NaCl. For IDH1 R132H, α-ketoglutarate, NADPH and MnCl2 are included at final concentrations of 300 μM, 2.5 μM and 300 μM respectively. For IDH1 R132C, α-ketoglutarate, NADPH and MnCl2 are included at final concentrations of 100 μM, 10 μM and 100 μM respectively. For IDH2 R172K, α-ketoglutarate, NADPH and MnCl2 are included at final concentrations of 150 μM, 10 μM and 150 μM respectively. For IDH2 R140Q, α-ketoglutarate, NADPH and MnCl2 are included at final concentrations of 3000 μM, 10 μM and 100 μM respectively. Final pH=7.0. Test compound dissolved in DMSO stock is diluted in the reaction mix at a final DMSO concentration of 4%. Compounds are tested in dose-response format. The assay is started by addition of enzyme. Enzymes are used at the following final concentrations: IDH1 R132H, 2 nM; IDH1 R132C, 0.5 nM; IDH2 R172K, 1.2 nM; IDH2 R140Q, 1.2 nM. After 90 minutes the reaction is quenched by adding ACN (50:50) containing 3-hydroxy-1,5-pentanedioic-2,2,3,4,4-d5 acid (5d5-3HG) as an internal standard for mass spectrometry analysis and quantitation of reaction product. 2-Hydroxyglutarate (2HG) in quenched samples is separated using strong anionic exchange column chromatography (Phenomenex Strata-X-A SecurityGuard) and analyzed by mass spectrometry in a 6460 triple quadrupole mass spectrometer (G6460A Agilent). The 2HG signal detected is transformed into an analyte concentration using a calibration curve generated using known 2HG concentrations. […] IC50 values are obtained from the individual % inhibition values at different compound concentrations using a 4-parameter equation. These calculations are carried out using Activity Base (IDBS) or Screener (Genedata) data analysis programs.

For a further assay, the target named is T2, IDH1/R132C (Homo sapiens, UniProt O75874, R132C).
T2 construct: His-tag (N); made in house; host or cells: E. coli
The assay is described as follows: Biochemical assay for IDH1 R132C mutant enzyme (2HG by RapidFire MS). On the procedure: as §1, §2

The target of a further assay is T3, IDH2/R140Q (Homo sapiens, UniProt P48735, R140Q).
T3 construct: His-tag (N); made in house; host or cells: E. coli
T3 sequence (P48735 40-452 R140Q): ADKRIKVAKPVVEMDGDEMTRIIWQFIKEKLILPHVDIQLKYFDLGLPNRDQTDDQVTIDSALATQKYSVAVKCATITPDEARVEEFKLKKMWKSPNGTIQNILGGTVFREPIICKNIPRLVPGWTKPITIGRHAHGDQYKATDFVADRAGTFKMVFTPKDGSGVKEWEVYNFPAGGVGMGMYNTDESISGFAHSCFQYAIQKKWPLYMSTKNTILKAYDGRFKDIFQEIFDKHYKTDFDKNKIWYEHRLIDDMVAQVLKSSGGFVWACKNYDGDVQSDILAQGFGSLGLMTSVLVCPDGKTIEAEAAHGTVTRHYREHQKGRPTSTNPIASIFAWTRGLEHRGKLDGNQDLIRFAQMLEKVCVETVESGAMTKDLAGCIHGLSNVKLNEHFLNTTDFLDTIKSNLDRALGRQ
Kind of assay: Biochemical assay for IDH2 R140Q mutant enzyme (2HG by RapidFire MS). How it is done:
as §1, §2

In the next assay the target is T4, IDH2/R172K (Homo sapiens, UniProt P48735, R172K).
T4 construct: His-tag (N); made in house; host or cells: E. coli
T4 sequence (P48735 40-452 R172K): T3 sequence (P48735 40-452 R140Q) with Q101R, R133K
The assay is described as follows: Biochemical assay for IDH2 R172K mutant enzyme (2HG by RapidFire MS). On the procedure: as §1, §2

Numbering of substitutions follows the chain as printed. Where only a bound is given, the exact number is not on record here.

T2 sequence (O75874 whole entry R132C): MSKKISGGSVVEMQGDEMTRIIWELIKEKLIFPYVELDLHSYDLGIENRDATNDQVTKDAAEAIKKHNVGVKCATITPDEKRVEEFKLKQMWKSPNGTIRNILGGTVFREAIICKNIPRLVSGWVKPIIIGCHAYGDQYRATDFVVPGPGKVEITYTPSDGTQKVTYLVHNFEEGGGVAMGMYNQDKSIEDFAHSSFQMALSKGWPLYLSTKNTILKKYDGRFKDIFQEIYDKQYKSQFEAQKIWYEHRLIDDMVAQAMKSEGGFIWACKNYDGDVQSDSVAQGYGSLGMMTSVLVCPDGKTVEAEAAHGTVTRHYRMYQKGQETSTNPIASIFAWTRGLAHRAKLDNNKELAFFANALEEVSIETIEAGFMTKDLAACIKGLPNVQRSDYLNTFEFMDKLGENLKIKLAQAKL
T1 sequence (O75874 whole entry R132H): as the sequence (O75874 whole entry R132C) above, with C132H counted along it

For the compound `C=CC(=O)N1CCN(Cc2ccc([C@H](C)Nc3ncc4c(n3)N(CC)C(=O)OC4)cc2)CC1` [Example 2, 1-Ethyl-7-[[(1S)-1-[4-[(4-prop-2-enoylpiperazin-1-yl)methyl]phenyl]ethyl]amino]-4H-pyrimido[4,5-d][1,3]oxazin-2-one], the concentration for half-maximal inhibition (IC50) against IDH1/R132H was determined as 110 ± 46 nM; against IDH1/R132C, 102 ± 43 nM; against IDH2/R140Q, 73900 nM; against IDH2/R172K it was 5260 nM.
Consider `C=CC(=O)N1CCC2(CC1)CN(Cc1ccc([C@H](C)Nc3ncc4c(n3)N(C(C)C)C(=O)OC4)cc1)C2` [Example 8, 1-Isopropyl-7-[[(1S)-1-[4-[(7-prop-2-enoyl-2,7-diazaspiro[3.5]nonan-2-yl)methyl]phenyl]ethyl]amino]-4H-pyrimido[4,5-d][1,3]oxazin-2-one], for which the 50% inhibitory concentration (IC50) was 290 ± 170 nM against IDH1/R132H, 209 ± 75 nM against IDH1/R132C, above 100000 nM against IDH2/R140Q and 51700 nM on IDH2/R172K.
In the case of `C=CC(=O)N1CCN(Cc2ccc([C@H](C)Nc3ncc4c(n3)N(CCF)C(=O)OC4)cc2)CC1` [Example 21, 1-(2-fluoroethyl)-7-[[(1S)-1-[4-[(4-prop-2-enoylpiperazin-1-yl)methyl]phenyl]ethyl]amino]-4H-pyrimido[4,5-d][1,3]oxazin-2-one], the concentration for half-maximal inhibition (IC50) is 323 ± 76 nM on IDH1/R132H, 485 ± 17 nM on IDH1/R132C, above 100000 nM against IDH2/R140Q and 10400 ± 7000 nM at IDH2/R172K.
`C=CC(=O)N1CC2(CN(Cc3ccc([C@H](C)Nc4ncc5c(n4)N(CC(C)C)C(=O)OC5)cc3)C2)C1` [Example 5, 1-Isobutyl-7-[[(1S)-1-[4-[(2-prop-2-enoyl-2,6-diazaspiro[3.3]heptan-6-yl)methyl]phenyl]ethyl]amino]-4H-pyrimido[4,5-d][1,3]oxazin-2-one]: the 50% inhibitory concentration (IC50) on IDH1/R132H was 56 ± 15.7 nM; against IDH1/R132C, 52.3 ± 22.5 nM; against IDH2/R140Q, above 100000 nM; at IDH2/R172K it was 13600 nM.
`C=CC(=O)N1CCN(Cc2ccc([C@H](C)Nc3ncc4c(n3)N(CC(C)C)C(=O)OC4)cc2)CC1` [Example 3, 1-Isobutyl-7-[[(1S)-1-[4-[(4-prop-2-enoylpiperazin-1-yl)methyl]phenyl]ethyl]amino]-4H-pyrimido[4,5-d][1,3]oxazin-2-one]: the IC50 came out at 50.9 ± 13.1 nM on IDH1/R132H, 29.5 ± 8.2 nM at IDH1/R132C, 59500 nM at IDH2/R140Q and 5350 nM on IDH2/R172K.
For `C=CC(=O)N1CCN(Cc2ccc([C@H](C)Nc3ncc4c(n3)N([C@H](C)CO)C(=O)OC4)cc2)CC1` [Example 11, 1-[(1R)-2-Hydroxy-1-methyl-ethyl]-7-[[(1S)-1-[4-[(4-prop-2-enoylpiperazin-1-yl)methyl]phenyl]ethyl]amino]-4H-pyrimido[4,5-d][1,3]oxazin-2-one], the half-inhibitory concentration (IC50) was 80.2 ± 51.9 nM on IDH1/R132H, 119 ± 54.1 nM at IDH1/R132C, above 100000 nM on IDH2/R140Q and 7840 nM on IDH2/R172K.
Regarding `C=CC(=O)N1CC2(CN(Cc3ccc([C@H](C)Nc4ncc5c(n4)N(C(C)C)C(=O)OC5)cc3)C2)C1` [Example 15, 1-Isopropyl-7-[[(1S)-1-[4-[(2-prop-2-enoyl-2,6-diazaspiro[3.3]heptan-6-yl)methyl]phenyl]ethyl]amino]-4H-pyrimido[4,5-d][1,3]oxazin-2-one], the IC50 was 128 ± 9 nM on IDH1/R132H, 109 ± 54 nM on IDH1/R132C, above 100000 nM against IDH2/R140Q and 10400 nM against IDH2/R172K.
As to `C=CC(=O)N1CC(CCc2ccc([C@H](C)Nc3ncc4c(n3)N(CC)C(=O)OC4)cc2)C1` [Example 7, 1-Ethyl-7-[[(1S)-1-[4-[2-(1-prop-2-enoylazetidin-3-yl)ethyl]phenyl]ethyl]amino]-4H-pyrimido[4,5-d][1,3]oxazin-2-one], the IC50 turned out to be 39.7 ± 26 nM against IDH1/R132H, 44.8 ± 21.9 nM against IDH1/R132C, 10900 nM at IDH2/R140Q and 482 nM at IDH2/R172K.
Regarding `C=CC(=O)N1CC(OCc2ccc([C@H](C)Nc3ncc4c(n3)N(CC)C(=O)OC4)cc2)C1` [Example 4, 1-Ethyl-7-[[(1S)-1-[4-[(1-prop-2-enoylazetidin-3-yl)oxymethyl]phenyl]ethyl]amino]-4H-pyrimido[4,5-d][1,3]oxazin-2-one], the concentration for half-maximal inhibition (IC50) on IDH1/R132H turned out to be 78.6 ± 18.9 nM; at IDH1/R132C it was 133 ± 32 nM; at IDH2/R140Q, 37700 nM; at IDH2/R172K, 1460 nM.
As to `C=CC(=O)N1CC2(CN(Cc3ccc([C@H](C)Nc4ncc5c(n4)N(CC)C(=O)OC5)cc3)C2)C1` [Example 14, 1-Ethyl-7-[[(1S)-1-[4-[(2-prop-2-enoyl-2,6-diazaspiro[3.3]heptan-6-yl)methyl]phenyl]ethyl]amino]-4H-pyrimido[4,5-d][1,3]oxazin-2-one], the half-inhibitory concentration (IC50) at IDH1/R132H is 81.9 ± 54.1 nM; against IDH1/R132C, 82.5 ± 58.3 nM; on IDH2/R140Q it was above 100000 nM; on IDH2/R172K, 13000 nM.
As for `C=CC(=O)N1CC=C(COc2ccc([C@H](C)Nc3ncc4c(n3)N(CC)C(=O)OC4)cc2)C1` [Example 22, 1-ethyl-7-[[(1S)-1-[4-[(1-prop-2-enoyl-2,5-dihydropyrrol-3-yl)methoxy]phenyl]ethyl]amino]-4H-pyrimido[4,5-d][1,3]oxazin-2-one], the results for the IC50 on IDH1/R132C, against IDH2/R140Q and on IDH2/R172K were 77.1 ± 10.2 nM, 11600 ± 2000 nM and 469 ± 355 nM, respectively.
Turning to `C=CC(=O)N1CCN(Cc2ccc([C@H](C)Nc3ncc4c(n3)N(CC(F)F)C(=O)OC4)cc2)CC1` [Example 20, 1-(2,2-difluoroethyl)-7-[[(1S)-1-[4-[(4-prop-2-enoylpiperazin-1-yl)methyl]phenyl]ethyl]amino]-4H-pyrimido[4,5-d][1,3]oxazin-2-one], the IC50 against IDH1/R132H was 180 ± 33 nM; against IDH1/R132C it was 189 ± 33 nM; at IDH2/R140Q, 83500 ± 17400 nM; against IDH2/R172K, 6780 ± 2400 nM.
For `C=CC(=O)N1CC(COc2ccc([C@H](C)Nc3ncc4c(n3)N(CC)C(=O)OC4)cc2)C1` [Example 17, 1-Ethyl-7-[[(1S)-1-[4-[(1-prop-2-enoylazetidin-3-yl)methoxy]phenyl]ethyl]amino]-4H-pyrimido[4,5-d][1,3]oxazin-2-one], in that order: 114 ± 38 nM, 215 ± 86 nM, 48700 nM and 1740 nM.
On to `C=CC(=O)N1CCN(c2ccc([C@H](C)Nc3ncc4c(n3)N(C(C)C)C(=O)OC4)cc2)CC1` [Example 6, 1-Isopropyl-7-[[(1S)-1-[4-(4-prop-2-enoylpiperazin-1-yl)phenyl]ethyl]amino]-4H-pyrimido[4,5-d][1,3]oxazin-2-one], for which the concentration for half-maximal inhibition (IC50) against IDH1/R132H was 150 ± 24 nM; at IDH1/R132C it was 162 ± 42 nM; against IDH2/R140Q, above 100000 nM; on IDH2/R172K it was 14100 nM.
`C=CC(=O)N1CC(OCc2ccc([C@H](C)Nc3ncc4c(n3)N(CC(C)C)C(=O)OC4)cc2)C1` [Example 13, 1-Isobutyl-7-[[(1S)-1-[4-[(1-prop-2-enoylazetidin-3-yl)oxymethyl]phenyl]ethyl]amino]-4H-pyrimido[4,5-d][1,3]oxazin-2-one]: the IC50 is 77.7 ± 19.6 nM against IDH1/R132H, 92.4 ± 15.4 nM against IDH1/R132C, 93600 nM at IDH2/R140Q and 5340 nM against IDH2/R172K.
